In US9771369B2, “Compounds and methods for kinase modulation, and indications therefor” (Plexxikon Inc., priority 2014, dated 2017):

How the values were obtained:
[1] = test system: BaF3-FL KIT D816V or BaF3-FL KIT V560G/D816V cell line; assay: Cell-based assays of c-Kit mutant kinase activity (cell proliferation, ATPlite); settings: at least one of the c-kit cell assays of Example 7
Procedure, shortened: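 BaF3 cells dependent on transfected full-length human KIT D816V or V560G/D816V (pCI-Neo, CMV promoter) were seeded at 1×10^4 cells/well and exposed to 8-point 1:3 dilutions from 10 μM top (0.2% DMSO) for three days at 37° C. ATPlite luminescence gave cell number; IC50 from concentration-response.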

c-kit mutant D816V = c-kit mutant D816V (Homo sapiens (Human), UniProt P10721, D816V/DEL694-753); assay: c-Kit mutant D816V biochemical assay (AlphaScreen kinase activity)
Procedure, shortened: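 AlphaScreen with streptavidin donor and PY30 acceptor beads read phosphotyrosine on biotin-(E4Y)10 substrate (30 nM). Enzyme: E. coli-expressed N-His c-Kit D816V, residues 551-934 lacking kinase insert 694-753. Reaction 30 min at room temperature, 10 μM ATP, 5% DMSO; IC50 fitted over 8 three-fold dilutions.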

Sequence of c-kit mutant D816V (P10721 other isoform, or with tags, fused parts or gaps D816V/del 694-753): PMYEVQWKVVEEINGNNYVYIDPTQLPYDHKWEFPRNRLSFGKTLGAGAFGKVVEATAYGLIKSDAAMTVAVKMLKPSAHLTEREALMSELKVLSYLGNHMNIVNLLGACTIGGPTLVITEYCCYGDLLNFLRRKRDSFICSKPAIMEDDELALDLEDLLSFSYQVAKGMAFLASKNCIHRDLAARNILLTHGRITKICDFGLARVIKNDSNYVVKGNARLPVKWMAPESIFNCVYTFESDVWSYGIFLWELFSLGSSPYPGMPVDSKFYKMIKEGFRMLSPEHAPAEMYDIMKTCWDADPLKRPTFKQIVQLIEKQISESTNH

| Structure (SMILES) | IC50 [1] [nM] | IC50 (c-kit mutant D816V) [µM] |
| --- | --- | --- |
| CCOc1ccc(-c2[nH]c(C3CCN(c4ncnc5[nH]c(C)cc45)CC3)nc2C)cc1C [P-3125, 4-[4-[5-(4-ethoxy-3-methyl-phenyl)-4-methyl-1H-imidazol-2-yl]-1-piperidyl]-6-methyl-7H-pyrrolo[2,3-d]pyrimidine] | < 10000 | 1 to 10 |
| CCOc1cc(-c2[nH]c(C3CCN(c4ncnc5[nH]c(C)cc45)CC3)nc2C)ccc1C [P-3126, 4-[4-[5-(3-ethoxy-4-methyl-phenyl)-4-methyl-1H-imidazol-2-yl]-1-piperidyl]-6-methyl-7H-pyrrolo[2,3-d]pyrimidine] | < 10000 | 0.0001 to 1 |
| Cc1cc2c(N3CCC(c4nc(C)c(-c5ccc6c(c5)OC(F)(F)O6)[nH]4)CC3)ncnc2[nH]1 [P-3127, 4-[4-[5-(2,2-difluoro-1,3-benzodioxol-5-yl)-4-methyl-1H-imidazol-2-yl]-1-piperidyl]-6-methyl-7H-pyrrolo[2,3-d]pyrimidine] | < 10000 | 1 to 10 |
| COc1ccc(-c2[nH]c(C3CCN(c4ncnc5[nH]c(C)cc45)CC3)nc2C)cc1C [P-3128, 4-[4-[5-(4-methoxy-3-methyl-phenyl)-4-methyl-1H-imidazol-2-yl]-1-piperidyl]-6-methyl-7H-pyrrolo[2,3-d]pyrimidine] | < 10000 | 0.0001 to 1 |
| COc1cc(-c2[nH]c(C3CCN(c4ncnc5[nH]c(C)cc45)CC3)nc2C)ccc1C [P-3129, 4-[4-[5-(3-methoxy-4-methyl-phenyl)-4-methyl-1H-imidazol-2-yl]-1-piperidyl]-6-methyl-7H-pyrrolo[2,3-d]pyrimidine] | < 10000 | 1 to 10 |
| COc1ccc(-c2[nH]c(C3CCN(c4ncnc5[nH]c(C)cc45)CC3)nc2C)cc1 [P-3130, 4-[4-[5-(4-methoxyphenyl)-4-methyl-1H-imidazol-2-yl]-1-piperidyl]-6-methyl-7H-pyrrolo[2,3-d]pyrimidine] | < 10000 | 1 to 10 |
| COc1cccc(-c2[nH]c(C3CCN(c4ncnc5[nH]c(C)cc45)CC3)nc2C)c1 [P-3131, 4-[4-[5-(3-methoxyphenyl)-4-methyl-1H-imidazol-2-yl]-1-piperidyl]-6-methyl-7H-pyrrolo[2,3-d]pyrimidine] | < 10000 | 0.0001 to 1 |
| Cc1nc(C2CCN(c3ncnc4[nH]c(-c5ccc(C#N)cc5)cc34)CC2)[nH]c1-c1ccc2c(c1)OCCO2 [P-3132, 4-[4-[4-[5-(2,3-dihydro-1,4-benzodioxin-6-yl)-4-methyl-1H-imidazol-2-yl]-1-piperidyl]-7H-pyrrolo[2,3-d]pyrimidin-6-yl]benzonitrile] | < 10000 | 0.0001 to 1 |
| Cc1nc(C2CCN(c3ncnc4[nH]c(-c5cnn(C(F)F)c5)cc34)CC2)[nH]c1-c1ccc2c(c1)OCCO2 [P-3133, 6-[1-(difluoromethyl)pyrazol-4-yl]-4-[4-[5-(2,3-dihydro-1,4-benzodioxin-6-yl)-4-methyl-1H-imidazol-2-yl]-1-piperidyl]-7H-pyrrolo[2,3-d]pyrimidine] | < 10000 | 0.0001 to 1 |
| COc1cc(-c2cc3c(N4CCC(c5nc(C(F)(F)F)c(-c6ccc(C)cc6)[nH]5)CC4)ncnc3[nH]2)ccn1 [P-3134, 6-(2-methoxy-4-pyridyl)-4-[4-[5-(p-tolyl)-4-(trifluoromethyl)-1H-imidazol-2-yl]-1-piperidyl]-7H-pyrrolo[2,3-d]pyrimidine] | < 10000 | 0.0001 to 1 |
| Cc1ccc(-c2[nH]c(C3CCN(c4ncnc5[nH]c(-c6ccc(F)cc6)cc45)CC3)nc2C(F)(F)F)cc1 [P-3135, 6-(4-fluorophenyl)-4-[4-[5-(p-tolyl)-4-(trifluoromethyl)-1H-imidazol-2-yl]-1-piperidyl]-7H-pyrrolo[2,3-d]pyrimidine] | < 10000 | 0.0001 to 1 |
| Cc1nc(C2CCN(c3ncnc4[nH]c(-c5ccc(F)cc5)cc34)CC2)[nH]c1-c1ccc(C(F)(F)F)cc1 [P-3136, 6-(4-fluorophenyl)-4-[4-[4-methyl-5-[4-(trifluoromethyl)phenyl]-1H-imidazol-2-yl]-1-piperidyl]-7H-pyrrolo[2,3-d]pyrimidine] | < 10000 | 0.0001 to 1 |
| Cc1nc(C2CCN(c3ncnc4[nH]c(-c5ccc(C#N)cc5)cc34)CC2)[nH]c1-c1ccc(C(F)(F)F)cc1 [P-3137, 4-[4-[4-[4-methyl-5-[4-(trifluoromethyl)phenyl]-1H-imidazol-2-yl]-1-piperidyl]-7H-pyrrolo[2,3-d]pyrimidin-6-yl]benzonitrile] | < 10000 | 0.0001 to 1 |
| Cc1nc(C2CCN(c3ncnc4[nH]c(-c5cnn(C(F)F)c5)cc34)CC2)[nH]c1-c1ccc2c(c1)OCO2 [P-3138, 4-[4-[5-(1,3-benzodioxol-5-yl)-4-methyl-1H-imidazol-2-yl]-1-piperidyl]-6-[1-(difluoromethyl)pyrazol-4-yl]-7H-pyrrolo[2,3-d]pyrimidine] | < 10000 | 0.0001 to 1 |
| CCOc1ccc(-c2[nH]c(C3CCN(c4ncnc5[nH]c(-c6cnn(C(F)F)c6)cc45)CC3)nc2C)cc1C [P-3139, 6-[1-(difluoromethyl)pyrazol-4-yl]-4-[4-[5-(4-ethoxy-3-methyl-phenyl)-4-methyl-1H-imidazol-2-yl]-1-piperidyl]-7H-pyrrolo[2,3-d]pyrimidine] | < 10000 | 0.0001 to 1 |
| CCC1(c2nc(C)c(-c3ccc(OC)cc3)[nH]2)CCN(c2ncnc3[nH]c(C)cc23)CC1 [P-3140, 4-[4-ethyl-4-[5-(4-methoxyphenyl)-4-methyl-1H-imidazol-2-yl]-1-piperidyl]-6-methyl-7H-pyrrolo[2,3-d]pyrimidine] | < 10000 | 0.0001 to 1 |
| CCC1(c2nc(C)c(-c3ccc(OC)c(C)c3)[nH]2)CCN(c2ncnc3[nH]c(C)cc23)CC1 [P-3141, 4-[4-ethyl-4-[5-(4-methoxy-3-methyl-phenyl)-4-methyl-1H-imidazol-2-yl]-1-piperidyl]-6-methyl-7H-pyrrolo[2,3-d]pyrimidine] | < 10000 | 0.0001 to 1 |
| CCOc1ccc(-c2[nH]c(C3(CC)CCN(c4ncnc5[nH]c(C)cc45)CC3)nc2C)cc1C [P-3142, 4-[4-[5-(4-ethoxy-3-methyl-phenyl)-4-methyl-1H-imidazol-2-yl]-4-ethyl-1-piperidyl]-6-methyl-7H-pyrrolo[2,3-d]pyrimidine] | < 10000 | 0.0001 to 1 |
| CCC1(c2nc(C)c(-c3ccc4c(c3)OCO4)[nH]2)CCN(c2ncnc3[nH]c(C)cc23)CC1 [P-3143, 4-[4-[5-(1,3-benzodioxol-5-yl)-4-methyl-1H-imidazol-2-yl]-4-ethyl-1-piperidyl]-6-methyl-7H-pyrrolo[2,3-d]pyrimidine] | < 10000 | 0.0001 to 1 |
| CCC1(c2nc(C)c(-c3ccc4c(c3)OCCO4)[nH]2)CCN(c2ncnc3[nH]c(C)cc23)CC1 [P-3144, 4-[4-[5-(2,3-dihydro-1,4-benzodioxin-6-yl)-4-methyl-1H-imidazol-2-yl]-4-ethyl-1-piperidyl]-6-methyl-7H-pyrrolo[2,3-d]pyrimidine] | < 10000 | 0.0001 to 1 |
| CCOc1ccc(-c2[nH]c(C3(CC)CCN(c4ncnc5[nH]c(C)cc45)CC3)nc2C)cc1 [P-3145, 4-[4-[5-(4-ethoxyphenyl)-4-methyl-1H-imidazol-2-yl]-4-ethyl-1-piperidyl]-6-methyl-7H-pyrrolo[2,3-d]pyrimidine] | < 10000 | 0.0001 to 1 |
| COc1ccc(-c2[nH]c(C3CCN(c4ncnc5[nH]c(-c6ccnc(OC)c6)cc45)CC3)nc2C(F)(F)F)cc1 [P-3146, 4-[4-[5-(4-methoxyphenyl)-4-(trifluoromethyl)-1H-imidazol-2-yl]-1-piperidyl]-6-(2-methoxy-4-pyridyl)-7H-pyrrolo[2,3-d]pyrimidine] | < 10000 | 0.0001 to 1 |
| COc1ccc(-c2[nH]c(C3CCN(c4ncnc5[nH]c(-c6ccc(C#N)cc6)cc45)CC3)nc2C(F)(F)F)cc1 [P-3148, 4-[4-[4-[5-(4-methoxyphenyl)-4-(trifluoromethyl)-1H-imidazol-2-yl]-1-piperidyl]-7H-pyrrolo[2,3-d]pyrimidin-6-yl]benzonitrile] | < 10000 | 0.0001 to 1 |
| COc1cc(-c2cc3c(N4CCC(c5nc(C)c(-c6ccc(C(F)(F)F)cc6)[nH]5)CC4)ncnc3[nH]2)ccn1 [P-3149, 6-(2-methoxy-4-pyridyl)-4-[4-[4-methyl-5-[4-(trifluoromethyl)phenyl]-1H-imidazol-2-yl]-1-piperidyl]-7H-pyrrolo[2,3-d]pyrimidine] | < 10000 | 0.0001 to 1 |
| Cc1cc2c(N3CCC(C)(c4nc(C)c(-c5ccc6c(c5)OCO6)[nH]4)CC3)ncnc2[nH]1 [P-3150, 4-[4-[5-(1,3-benzodioxol-5-yl)-4-methyl-1H-imidazol-2-yl]-4-methyl-1-piperidyl]-6-methyl-7H-pyrrolo[2,3-d]pyrimidine] | < 10000 | 0.0001 to 1 |
| Cc1cc2c(N3CCC(C)(c4nc(C)c(-c5ccc6c(c5)OCCO6)[nH]4)CC3)ncnc2[nH]1 [P-3151, 4-[4-[5-(2,3-dihydro-1,4-benzodioxin-6-yl)-4-methyl-1H-imidazol-2-yl]-4-methyl-1-piperidyl]-6-methyl-7H-pyrrolo[2,3-d]pyrimidine] | < 10000 | 0.0001 to 1 |
| Cc1cc2c(N3CCC(C)(c4nc(C)c(-c5ccc6c(c5)OC(F)(F)O6)[nH]4)CC3)ncnc2[nH]1 [P-3152, 4-[4-[5-(2,2-difluoro-1,3-benzodioxol-5-yl)-4-methyl-1H-imidazol-2-yl]-4-methyl-1-piperidyl]-6-methyl-7H-pyrrolo[2,3-d]pyrimidine] | < 10000 | 0.0001 to 1 |
